# Measured values: patent US20220104492A1, “PYRIDAZINIUM COMPOUNDS FOR USE IN A METHOD OF CONTROLLING UNWANTED PLANT GROWTH” (SYNGENTA CROP PROTECTION AG, priority 2019, published 2022)
# How the values were obtained:
# Assay in all cases: Post-emergence efficacy (glasshouse, spray application)
# Assay type in all cases: in vivo
# [1] = system: Amaranthus palmeri (AMAPA); details: 312 h, Application rate 500 g/Ha, evaluated after 13 days, 100=total damage to plant, 0=no damage to plant, read-out: Control of weed species after post-emergence application, AMAPA
# Protocol: (§1) Seeds of a variety of test species were sown in standard soil in pots. After cultivation for 14 days (post-emergence) under controlled conditions in a glasshouse (at 24/16° C., day/night; 14 hours light; 65 humidity), the plants were sprayed with an aqueous spray solution derived from the dissolution of the technical active ingredient formula (I) in a small amount of acetone and a special solvent and emulsifier mixture referred to as IF50 (11.12% Emulsogen EL360 TM+44.44% N-methylpyrrolidone+44.44% Dowanol DPM glycol ether), to create a 50 g/l solution which was then diluted to required concentration using a solution of 0.25% or 1% Empicol ESC70 (Sodium lauryl ether sulphate)+1% ammonium sulphate in water as diluent.
# (§2) The test plants were then grown in a glasshouse under controlled conditions (at 24/16° C., day/night; 14 hours light; 65% humidity) and watered twice daily. After 13 days the test was evaluated (100=total damage to plant; 0=no damage to plant).
# (§3) Ipomoea hederacea (IPOHE), Euphorbia heterophylla (EPHHL), Chenopodium album (CHEAL), Amaranthus palmeri (AMAPA), Lolium perenne (LOLPE), Digitaria sanguinalis (DIGSA), Eleusine indica (ELEIN), Echinochloa crus-galli (ECHCG), Setaria faberi (SETFA)
# [2] = system: Chenopodium album (CHEAL); details: 312 h, Application rate 500 g/Ha, evaluated after 13 days, 100=total damage to plant, 0=no damage to plant, read-out: Control of weed species after post-emergence application, CHEAL
# Protocol: as §1, §2, §3
# [3] = system: Digitaria sanguinalis (DIGSA); details: 312 h, Application rate 500 g/Ha, evaluated after 13 days, 100=total damage to plant, 0=no damage to plant, read-out: Control of weed species after post-emergence application, DIGSA
# Protocol: as §1, §2, §3
# [4] = system: Echinochloa crus-galli (ECHCG); details: 312 h, Application rate 500 g/Ha, evaluated after 13 days, 100=total damage to plant, 0=no damage to plant, read-out: Control of weed species after post-emergence application, ECHCG
# Protocol: as §1, §2, §3
# Eleusine indica (ELEIN) = details: 312 h, Application rate 500 g/Ha, evaluated after 13 days, 100=total damage to plant, 0=no damage to plant, read-out: Control of weed species after post-emergence application, ELEIN
# Protocol: as §1, §2, §3
# [5] = system: Euphorbia heterophylla (EPHHL); details: 312 h, Application rate 500 g/Ha, evaluated after 13 days, 100=total damage to plant, 0=no damage to plant, read-out: Control of weed species after post-emergence application, EPHHL
# Protocol: as §1, §2, §3
# [6] = system: Ipomoea hederacea (IPOHE); details: 312 h, Application rate 500 g/Ha, evaluated after 13 days, 100=total damage to plant, 0=no damage to plant, read-out: Control of weed species after post-emergence application, IPOHE
# Protocol: as §1, §2, §3
# Lolium perenne (LOLPE) = details: 312 h, Application rate 500 g/Ha, evaluated after 13 days, 100=total damage to plant, 0=no damage to plant, read-out: Control of weed species after post-emergence application, LOLPE
# Protocol: as §1, §2, §3
# Setaria faberi (SETFA) = details: 312 h, Application rate 500 g/Ha, evaluated after 13 days, 100=total damage to plant, 0=no damage to plant, read-out: Control of weed species after post-emergence application, SETFA
# Protocol: as §1, §2, §3
Compound,pest or weed control at 500 g/ha [1],pest or weed control at 500 g/ha [2],pest or weed control at 500 g/ha [3],pest or weed control at 500 g/ha [4],pest or weed control at 500 g/ha (Eleusine indica (ELEIN)),pest or weed control at 500 g/ha [5],pest or weed control at 500 g/ha [6],pest or weed control at 500 g/ha (Lolium perenne (LOLPE)),pest or weed control at 500 g/ha (Setaria faberi (SETFA))
CC(C)(NC(=O)C[n+]1ccc(-c2ncccn2)cn1)C(=O)O [Compound A37],100%,50%,70%,40%,70%,80%,40%,70%,80%
O=C(CC[n+]1ccc(-c2ncccn2)cn1)NC1(C(=O)O)CC1 [Compound A38],100%,100%,90%,50%,100%,80%,10%,90%,100%
O=C(O)COC[n+]1ccc(-c2ncccn2)cn1 [Compound A39],100%,80%,100%,80%,60%,90%,80%,70%,70%
